Measured values published in patent US9000018B2, “Thiazolidin-4-one-derivatives” (Actelion Pharmaceuticals Ltd., priority 2003, dated 2015).
Marks after values point to notes of the source that are not given here.

These compounds were tested on circulating lymphocytes in whole blood (assay: number of circulating lymphocytes in whole blood of rats). Settings: 6 h after oral administration of 10 mg/kg to normotensive male Wistar rats, compared to group treated with vehicle only.
Assay type: in vivo, normotensive male Wistar rats
Procedure: Normotensive male Wistar rats are housed in climate-controlled conditions with a 12-hour light/dark cycle, and have free access to normal rat chow and drinking water. Blood (0.5 mL) is collected by retro-orbital sampling before drug administration, and 3 and 6 h thereafter. Blood cell count is measured in whole blood using a Beckman-Coulter Synchron CX5 Pro cytometer. Statistical analysis of lymphocyte counts are performed by analysis of variance (ANOVA) using Statistica (StatSoft) and the Student-Newman-Keuls procedure for multiple comparisons. Thus, compounds of the invention decrease the number of circulating lymphocytes in whole blood when compared to pre-drug values.
`Cc1ccccc1N1C(=O)/C(=C/c2ccc(OCC(O)CO)c(Cl)c2)S/C1=N\C(C)C` (racemic) [Example 24, rac-5-[3-chloro-4-(2,3-dihydroxy-propoxy)-benz[Z]ylidene]-2-([Z]-isopropylimino)-3-o-tolyl-thiazolidin-4-one] showed a Lymphocyte counts of −54%.
Compound `Cc1cccc(N2C(=O)/C(=C/c3ccc(OCC(O)CO)c(Cl)c3)S/C2=N\C(C)C)c1C` (racemic) [Example 46, rac-5-[3-chloro-4-(2,3-dihydroxy-propoxy)-benz[Z]ylidene]-3-(2,3-dimethyl-phenyl)-2-([Z]-isopropylimino)-thiazolidin-4-one] has a Lymphocyte counts of −37%.
Work on `CCC/N=C1\S/C(=C\c2ccc(OCC(O)CO)c(Cl)c2)C(=O)N1c1ccccc1` (racemic) [Example 77, rac-5-[3-chloro-4-(2,3-dihydroxy-propoxy)-benz[Z]ylidene]-3-phenyl-2-([Z]-propylimino)-thiazolidin-4-one] yielded a Lymphocyte counts of −55%.
In the case of `CCC/N=C1\S/C(=C\c2ccc(OCC(O)CO)c(Cl)c2)C(=O)N1c1ccccc1C` (racemic) [Example 84, rac-5-[3-chloro-4-(2,3-dihydroxy-propoxy)-benz[Z]ylidene]-2-([Z]-propylimino)-3-o-tolyl-thiazolidin-4-one], the Lymphocyte counts is reported as −68%.
In the case of `CCC/N=C1\S/C(=C\c2ccc(OCC(O)CO)c(Cl)c2)C(=O)N1c1cccc(C)c1C` (racemic) [Example 95, rac-5-[3-chloro-4-(2,3-dihydroxy-propoxy)-benz[Z]ylidene]-3-(2,3-dimethyl-phenyl)-2-([Z]-propylimino)-thiazolidin-4-one], the Lymphocyte counts is reported as −53%.
In the case of `CC(C)/N=C1\S/C(=C\c2ccc(OCCO)cc2)C(=O)N1c1ccccc1` [Example 4, 5-[4-(2-Hydroxy-ethoxy)-benz-(Z)-ylidene]-2-[(Z)-isopropylimino]-3-phenyl-thiazolidin-4-one], the Lymphocyte counts is reported as −32%.
Compound `CC(C)/N=C1\S/C(=C\c2ccc(OCCO)c(Cl)c2)C(=O)N1c1ccccc1` [Example 7, 5-[3-Chloro-4-(2-hydroxy-ethoxy)-benz-(Z)-ylidene]-2-[(Z)-isopropylimino]-3-phenyl-thiazolidin-4-one] has a Lymphocyte counts of −67%.
Work on `Cc1cccc(N2C(=O)/C(=C/c3ccc(OCCO)c(Cl)c3)S/C2=N\C(C)C)c1C` [Example 42, 5-[3-chloro-4-(2-hydroxy-ethoxy)-benz[Z]ylidene]-3-(2,3-dimethyl-phenyl)-2-([Z]-isopropylimino)-thiazolidin-4-one] yielded a Lymphocyte counts of −23%.
Compound `CCC/N=C1\S/C(=C\c2ccc(OCCO)c(Cl)c2)C(=O)N1c1ccccc1` [Example 75, 5-[3-chloro-4-(2-hydroxy-ethoxy)-benz[Z]ylidene]-3-phenyl-2-([Z]-propylimino)-thiazolidin-4-one] has a Lymphocyte counts of −47%.
`CCC/N=C1\S/C(=C\c2ccc(OCCO)c(C)c2)C(=O)N1c1ccccc1` [Example 76, 5-[4-(2-hydroxy-ethoxy)-3-methyl-benz[Z]ylidene]-3-phenyl-2-([Z]-propylimino)-thiazolidin-4-one] gave a Lymphocyte counts of −58%.
With `CCC/N=C1\S/C(=C\c2ccc(OC[C@H](O)CO)c(Cl)c2)C(=O)N1c1ccccc1C` [Example 85, 5-[3-chloro-4-((2R)-2,3-dihydroxy-propoxy)-benz-(Z)-ylidene]-2-[(Z)-propylimino]-3-o-tolyl-thiazolidin-4-one] the Lymphocyte counts was −63%.
Work on `CCC/N=C1\S/C(=C\c2ccc(OCCO)c(Cl)c2)C(=O)N1c1cccc(C)c1C` [Example 91, 5-[3-chloro-4-(2-hydroxy-ethoxy)-benz[Z]ylidene]-3-(2,3-dimethyl-phenyl)-2-([Z]-propylimino)-thiazolidin-4-one] yielded a Lymphocyte counts of −35%.
`CN(C)N=C1SC(=Cc2ccc(OCCO)cc2)C(=O)N1c1ccccc1` [Example 100, 2-(dimethyl-hydrazono)-5-[4-(2-hydroxy-ethoxy)-benz[Z]ylidene]-3-phenyl-thiazolidin-4-one] gave a Lymphocyte counts of −53%.
`CC/N=C1\S/C(=C\c2ccc(OCCO)c(Cl)c2)C(=O)N1c1ccccc1` [Example 103, 5-[3-chloro-4-(2-hydroxy-ethoxy)-benz[Z]ylidene]-2-([Z]-Ethylimino)-3-phenyl-thiazolidin-4-one] gave a Lymphocyte counts of −47%.
`CC/N=C1\S/C(=C\c2ccc(OCCO)c(Cl)c2)C(=O)N1c1cccc(C)c1C` [Example 110, 5-[3-chloro-4-(2-hydroxy-ethoxy)-benz[Z]ylidene]-3-(2,3-dimethyl-phenyl)-2-([Z]-ethylimino)-thiazolidin-4-one] gave a Lymphocyte counts of −30%.
`CC(C)/N=C1\S/C(=C\c2ccc(OCCO)c(Cl)c2)C(=O)N1C(C)C` [Example 130, 5-[3-chloro-4-(2-hydroxy-ethoxy)-benz[Z]ylidene]-3-isopropyl-2-([Z]-isopropylimino)-thiazolidin-4-one] showed a Lymphocyte counts of −26%.

Same assay, conditions: at 3 mg/kg p.o.; 6 h after oral administration to normotensive male Wistar rats, compared to group treated with vehicle only
`CCC/N=C1\S/C(=C\c2ccc(OC[C@@H](O)CO)c(Cl)c2)C(=O)N1c1ccccc1C` [Example 86, (S)-5-[3-chloro-4-(2,3-dihydroxy-propoxy)-benz[Z]ylidene]-2-([Z]-propylimino)-3-o-tolyl-thiazolidin-4-one] was tested, and the Lymphocyte counts was −30* %.
